Measurements published in patent US20240271096A1, “EFFICIENT DIFFERENTIATION OF SECOND HEART FIELD CARDIAC PROGENITOR CELLS AND RIGHT VENTRICLE CARDIOMYOCYTES FROM HUMAN PLURIPOTENT STEM CELLS” (Wisconsin Alumni Research Foundation, priority 2023, published 2024).

Tested on: reporterless hiPSC line
Test: Immunostaining of marker proteins in hiPSC-derived cardiac progenitor cells and cardiomyocytes
Assay type: cell-based, human
Method: For LV-cardiomyocyte differentiation, cardiac differentiation was performed according to the protocol published by (Lian et al., 2012, Proc Natl Acad Sci USA 109:[…]-57). Cells were dissociated with StemPro Accutase Cell Dissociation Reagent at 37° C. for 5 minutes. HESCs were seeded on Matrigel-coated 24-well plates (Corning) in StemFlex Medium supplemented with 10 μmol/[…] were seeded on iMatrix-511-coated 12-well plates (Corning) in StemFit A[…] supplemented with 10 μmol/[…] at seeding densities of 1×10^5 cells/cm^2 for hESCs and 1.25-2.5×10^4 cells/cm^2 for hiPSCs. Cells were cultured for 4 days until the start of differentiation (day 0). On day 0, the medium was changed to RPMI 1640 Medium (Thermo Fisher Scientific) supplemented with B-27 Supplement minus insulin (Thermo Fisher Scientific) (RPMI/B27-insulin) or B-27 Supplement with insulin (Thermo Fisher Scientific), and 12 μmol/L CHIR 99021 (SelleckChem, Houston, TX, United States), and the cells incubated in this medium for 24 h (day 1). On day 1, the medium was changed to RPMI/B27-insulin. […] On day 3, the medium was changed to RPMI/B27-insulin supplemented with 5 μmol/L IWP2 (SelleckChem) and on day 5, the medium was changed to 1 ml RPMI/B27-insulin. From day 7, the cells were cultured with RPMI/B27-insulin, and the cells were fed every other day. On day 12, the cells were washed with PBS (Thermo Fisher Scientific) and cultured with DMEM or RPMI, no glucose supplemented with 8 mmol/L L-(+)-Lactic acid (Merck) (Tohyama et al., 2013 Cell Stem Cell, 12:127-37). The medium was changed every other day until day 17. After day 17, the cells were cultured with RPMI/B27 and fed every 2 to 3 days. For long-term culture, the cells were dissociated with TrypLETM Select Enzyme (10×) (Thermo Fisher Scientific) at 37° C. for 15-20 minutes and seeded on Matrigel- or iMatrix-511-coated plates. […] For FIG. 15A and FIG. 15B, dorsomorphin (DM) or 3 μg/L insulin were added on day 0 (for 24 hours), 1, 3, or 5 (for 48 hours). Cells were plated on iMatrix-511-coated plates and fixed in 4% paraformaldehyde (Nacalai, Kyoto, Japan) for 15 minutes. Cells were permeabilized with 0.1% Triton X-100 (Sigma-Aldrich, St. Louis, MO, United States)/PBS and blocked with 10% goat serum (Sigma-Aldrich). Primary and secondary antibodies were diluted in 0.1% Triton X-100/PBS with 5% goat serum and stained with Hoechst 33342 (Thermo Fisher Scientific) at 1 μg/mL, mouse anti-cardiac troponin T monoclonal IgG1 (GTX28295, GeneTex, Irvine, CA, United States) diluted at 1:16000, mouse anti-α-actinin monoclonal IgG1 (A7811, Sigma-Aldrich) diluted at 1:1000, rabbit anti-MLC2v monoclonal IgG (ab92721, Abcam, Cambridge, United Kingdom) diluted at 1:500, rabbit anti-CXCR4 monoclonal IgG (ab181020, Abcam) diluted at 1:2000, rabbit anti-NKX2-5 monoclonal IgG (Cat #. […], Cell Signaling Technology, Danvers, MA, United States) diluted at 1:2500, mouse anti-Nav1.5 (Car #. ASC-013, Alomone Labs) diluted at 1:1000, rabbit anti-connexin 43 (Cat #. 83649, Cell Signaling Technology) diluted at 1:1000, and mouse anti-TBX5 monoclonal IgG2a (Cat #. sc-515536, Santa Cruz Biotechnology, Dallas, TX, United States) diluted at 1:500. These cells were then incubated with a secondary antibody, goat anti-mouse or rabbit polyclonal IgG conjugated with iFluor 488 or 555 (AAT Bioquest, Sunnyvale, CA, United States) diluted at 1:1000, for 1 hour at room temperature. The cells were then observed with IX71 (Olympus, Tokyo, Japan) or EVOS FL Auto (Thermo Fisher Scientific) and images processed with ImageJ ([…] al., 2012, Nat Methods, 9:671-5).

## insulin
Added on day 1 for 48 hours
  RV cardiomyocytes differentiation: induced optimal RV cardiomyocytes differentiation
Insulin day 0 to day 1, day 6
  CXCR4 immunostaining: upregulation
Insulin day 0 to day 1, day 10
  TBX5 expression (immunostaining): greatly reduced
  expression of pan-cardiomyocyte markers NKX2-5 and cardiac Troponin T (cTnT): expressed
Insulin on day 1 for 48 hours (D1-3)
  immunostaining of TBX5: low
